In data set [1] the test system is bicistronic HCV replicon (replicon RNA, GenBank Accession No. AJ242654). Nature of the data set: HCV Replicon Assay. The data set is classed as cell-based. As to conditions: Hepatitis C virus, 72 h, read-out: Replicon IC50. In general terms: In antiviral work, replicon cells carry a viral genome segment that copies itself.

The melting point is the temperature of the solid-liquid transition. Usually IC50 stands for the concentration at which inhibition is half-maximal.

Consider `Cc1cc2c(C#N)c(-c3ccc(S(=O)(=O)N[C@@H](C)C(F)(F)F)cn3)n(-c3cnccn3)c2cc1F` [compound 919, 6-[3-cyano-6-fluoro-5-methyl-1-(pyrazin-2-yl)-1H-indol-2-yl]-N-[(2S)-1,1,1-trifluoropropan-2-yl]pyridine-3-sulfonamide], for which the melting point fell in the range of 233 to 238 °C. For the same molecule, in data set [1], the concentration for half-maximal inhibition (IC50) was < 500 nM.
For the molecule `C[C@H](NS(=O)(=O)c1cnc(-c2c(C#N)c3ccc(OC(F)F)cc3n2C2CCCC2)nc1)C(F)(F)F` [compound 326, 2-[3-cyano-1-cyclopentyl-6-(difluoromethoxy)-1H-indol-2-yl]-N-[(2S)-1,1,1-trifluoropropan-2-yl]pyrimidine-5-sulfonamide], the melting point fell in the range of 231 to 232 °C. Besides, the IC50 in data set [1] was < 500 nM.
In the same order, the values of `Cc1cc2c(cc1F)c(C(N)=O)c(-c1ccc(S(=O)(=O)NC(C)(C)C(F)(F)F)cn1)n2C1CCOCC1` [compound 768, 5-fluoro-6-methyl-1-(tetrahydro-2H-pyran-4-yl)-2-{5-[(1,1,1-trifluoro-2-methylpropan-2-yl)sulfamoyl]pyridin-2-yl}-1H-indole-3-carboxamide] are 200 to 206 °C and < 500 nM.
Taken in the same sequence, the figures for `CCc1cc2c(cc1F)c(C#N)c(-c1ncc(S(=O)(=O)N[C@@H](C)C(F)(F)F)cc1C)n2-c1ccccn1` [compound 870, 6-[3-cyano-6-ethyl-5-fluoro-1-(pyridin-2-yl)-1H-indol-2-yl]-5-methyl-N-[(2S)-1,1,1-trifluoropropan-2-yl]pyridine-3-sulfonamide] were 195 to 198 °C and < 500 nM.
In the same order, the values of `C[C@H](NS(=O)(=O)c1ccc(-c2c(C#N)c3ccc(OC(F)(F)F)cc3n2C2CCCC2)nc1)C1CC1` [compound 320, 6-[3-cyano-1-cyclopentyl-6-(trifluoromethoxy)-1H-indol-2-yl]-N-[(1S)-1-cyclopropylethyl]pyridine-3-sulfonamide] are 133 to 134 °C and 500 to 2000 nM.
On to `N#Cc1c(-c2ncc(S(=O)(=O)NC(CF)CF)cn2)n(CC2CC2)c2ccc(F)cc12` [compound 302, 2-[3-cyano-1-(cyclopropylmethyl)-5-fluoro-1H-indol-2-yl]-N-(1,3-difluoropropan-2-yl)pyrimidine-5-sulfonamide], for which the melting point was in the range of 216 to 221 °C. Moreover, the 50% inhibitory concentration (IC50) in data set [1] was < 500 nM.
Taken in the same sequence, the figures for `Cc1cc2c(C#N)c(-c3ncc(S(=O)(=O)NC(C)C)cn3)n(C3CCCC3)c2cc1Cl` [compound 523, 2-(6-chloro-3-cyano-1-cyclopentyl-5-methyl-1H-indol-2-yl)-N-(propan-2-yl)pyrimidine-5-sulfonamide] were 216 to 216.5 °C and 500 to 2000 nM.
The molecule `CCc1cc2c(cc1F)c(C#N)c(-c1ccc(S(=O)(=O)NC(C)(C)C)cn1)n2-c1ccccc1` [compound 884, N-tert-butyl-6-(3-cyano-6-ethyl-5-fluoro-1-phenyl-1H-indol-2-yl)pyridine-3-sulfonamide] displayed a melting point of 175 to 180 °C. For the same molecule, the 50% inhibitory concentration (IC50) in data set [1] was < 500 nM.
For `CC(C)(NS(=O)(=O)c1ccc(-c2c(C(N)=O)c3cc(F)c(OC(F)F)cc3n2C2CCCC2)nc1)C(F)(F)F` [compound 863, 1-cyclopentyl-6-(difluoromethoxy)-5-fluoro-2-{5-[(1,1,1-trifluoro-2-methylpropan-2-yl)sulfamoyl]pyridin-2-yl}-1H-indole-3-carboxamide], the melting point fell in the range of 215 to 217 °C. Also, in data set [1], the IC50 is < 500 nM.
In the same order, the values of `COc1ccc2c(C#N)c(-c3ccc(S(=O)(=O)N[C@H](C)C(F)(F)F)cn3)n(C3CCC3)c2c1` [compound 428, 6-(3-cyano-1-cyclobutyl-6-methoxy-1H-indol-2-yl)-N-[(2R)-1,1,1-trifluoropropan-2-yl]pyridine-3-sulfonamide] are 206 to 212 °C and < 500 nM.
Consider `CC(C)(NS(=O)(=O)c1ccc(-c2c(C#N)c3c(F)cc(C4CC4)cc3n2-c2ncccn2)nc1)C(F)(F)F` [compound 1098, 6-[3-cyano-6-cyclopropyl-4-fluoro-1-(pyrimidin-2-yl)-1H-indol-2-yl]-N-(1,1,1-trifluoro-2-methylpropan-2-yl)pyridine-3-sulfonamide], for which the melting point lay within 198 to 200 °C. In addition, the IC50 in data set [1] was 500 to 2000 nM.
In the same order, the values of `C[C@H](NS(=O)(=O)c1cnc(-c2c(C#N)c3cc(Cl)ccc3n2C2CCC2)nc1)C(F)(F)F` [compound 454, 2-(5-chloro-3-cyano-1-cyclobutyl-1H-indol-2-yl)-N-[(2S)-1,1,1-trifluoropropan-2-yl]pyrimidine-5-sulfonamide] are 232 to 234 °C and < 500 nM.
Taken in the same sequence, the figures for `Cc1cc2c(cc1F)c(C#N)c(-c1ccc(S(=O)(=O)N[C@@H](C)C(F)(F)F)cn1)n2-c1cncnc1` [compound 894, 6-[3-cyano-5-fluoro-6-methyl-1-(pyrimidin-5-yl)-1H-indol-2-yl]-N-[(2S)-1,1,1-trifluoropropan-2-yl]pyridine-3-sulfonamide] were 198 to 202 °C and < 500 nM.
In turn, `Cc1ccc2c(C#N)c(-c3ccc(S(=O)(=O)NC(CF)CF)cn3)n(C3CCC3)c2c1F` [compound 422, 6-(3-cyano-1-cyclobutyl-7-fluoro-6-methyl-1H-indol-2-yl)-N-(1,3-difluoropropan-2-yl)pyridine-3-sulfonamide] came in with a melting point of 186 to 201 °C. The IC50 in data set [1] is < 500 nM.
`COc1ccc2c(c1)c(C#N)c(-c1ccc(S(=O)(=O)N[C@@H](C)C(F)(F)F)cn1)n2C1CCC1` [compound 453, 6-(3-cyano-1-cyclobutyl-5-methoxy-1H-indol-2-yl)-N-[(2S)-1,1,1-trifluoropropan-2-yl]pyridine-3-sulfonamide] had a melting point of 181 to 183 °C. Moreover, the IC50 in data set [1] was < 500 nM.
`C[C@H](NS(=O)(=O)c1ccc(-c2c(C#N)c3ccc(C(F)F)cc3n2C2CCC2)nc1)C1CC1` [compound 335, 6-[3-cyano-1-cyclobutyl-6-(difluoromethyl)-1H-indol-2-yl]-N-[(1S)-1-cyclopropylethyl]pyridine-3-sulfonamide] gave a melting point of 182 to 189 °C. Further, the IC50 in data set [1] was < 500 nM.
In the same order, the values of `CCc1cc2c(cc1F)c(C#N)c(-c1ccc(S(=O)(=O)N[C@@H](C)C(F)(F)F)cn1)n2-c1cccc(OC)c1` [compound 1010, 6-[3-cyano-6-ethyl-5-fluoro-1-(3-methoxyphenyl)-1H-indol-2-yl]-N-[(2S)-1,1,1-trifluoropropan-2-yl]pyridine-3-sulfonamide] are 229 to 233 °C and < 500 nM.
As for `CC(C)(C)S(=O)(=O)Nc1ccc(-c2c(C#N)c3ccc(Oc4ncccn4)cc3n2C2CCC2)cn1` [compound 268, N-{5-[3-cyano-1-cyclobutyl-6-(pyrimidin-2-yloxy)-1H-indol-2-yl]pyridin-2-yl}-2-methylpropane-2-sulfonamide], the melting point lay within 275 to 277 °C. Also, the IC50 in data set [1] is < 500 nM.
For `N#Cc1c(-c2ccc(S(=O)(=O)NC3(C(F)(F)F)CCC3)cn2)n(C2CCCC2)c2cc(OC(F)F)ccc12` [compound 588, 6-[3-cyano-1-cyclopentyl-6-(difluoromethoxy)-1H-indol-2-yl]-N-[1-(trifluoromethyl)cyclobutyl]pyridine-3-sulfonamide], the melting point fell in the range of 172 to 176 °C. In addition, the IC50 in data set [1] was < 500 nM.
In the same order, the values of `Cc1cc2c(cc1F)c(C#N)c(-c1ccc(S(=O)(=O)NC3(C(F)(F)F)CC3)cn1)n2C1CCC1` [compound 613, 6-(3-cyano-1-cyclobutyl-5-fluoro-6-methyl-1H-indol-2-yl)-N-[1-(trifluoromethyl)cyclopropyl]pyridine-3-sulfonamide] are 223 to 232 °C and < 500 nM.
`N#Cc1c(-c2ccc(S(=O)(=O)NC(CF)CF)cn2)n(C2CCC2)c2cc(C3CC3)c(F)cc12` [compound 107, 6-(3-cyano-1-cyclobutyl-6-cyclopropyl-5-fluoro-1H-indol-2-yl)-N-(1,3-difluoropropan-2-yl)pyridine-3-sulfonamide] displayed a melting point of 182 to 186 °C. Besides, the IC50 in data set [1] is < 500 nM.
In the same order, the values of `Cc1cc2c(cc1F)c(C(N)=O)c(-c1ccc(S(=O)(=O)N[C@@H](C)C(F)(F)F)cn1)n2-c1ccc(F)cn1` [compound 876, 5-fluoro-1-(5-fluoropyridin-2-yl)-6-methyl-2-(5-{[(2S)-1,1,1-trifluoropropan-2-yl]sulfamoyl}pyridin-2-yl)-1H-indole-3-carboxamide] are 224 to 228 °C and < 500 nM.
Taken in the same sequence, the figures for `COc1ccnc(-n2c(-c3ccc(S(=O)(=O)N[C@@H](C)C(F)(F)F)cn3)c(C(N)=O)c3cc(F)c(C)cc32)n1` [compound 906, 5-fluoro-1-(4-methoxypyrimidin-2-yl)-6-methyl-2-(5-{[(2S)-1,1,1-trifluoropropan-2-yl]sulfamoyl}pyridin-2-yl)-1H-indole-3-carboxamide] were 167 to 174 °C and < 500 nM.
Taken in the same sequence, the figures for `N#Cc1c(-c2ncc(S(=O)(=O)NC(CF)CF)cn2)n(C2CCCC2)c2cc(OC(F)(F)F)ccc12` [compound 178, 2-[3-cyano-1-cyclopentyl-6-(trifluoromethoxy)-1H-indol-2-yl]-N-(1,3-difluoropropan-2-yl)pyrimidine-5-sulfonamide] were 181 to 187 °C and < 500 nM.
On to `CCc1ccc2c(C#N)c(-c3ccc(S(=O)(=O)NC(CF)CF)cn3)n(C3CCC3)c2c1` [compound 48, 6-(3-cyano-1-cyclobutyl-6-ethyl-1H-indol-2-yl)-N-(1,3-difluoropropan-2-yl)pyridine-3-sulfonamide], for which the melting point lay in the range of 201 to 202 °C. For the same molecule, the IC50 in data set [1] is < 500 nM.
On to `Cc1cc2c(cc1F)c(C#N)c(-c1ccc(S(=O)(=O)N[C@@H](C)C(F)(F)F)cn1)n2-c1ccncn1` [compound 896, 6-[3-cyano-5-fluoro-6-methyl-1-(pyrimidin-4-yl)-1H-indol-2-yl]-N-[(2S)-1,1,1-trifluoropropan-2-yl]pyridine-3-sulfonamide], for which the melting point lay in the range of 214 to 219 °C. The IC50 in data set [1] is < 500 nM.

(Values after patent publication US8735414B2 (priority 2009, dated 2014).)
